# Measured values published in patent US20130237493A1, “COMBINATION THERAPY OF 4-(CYCLOPROPYLAMINO)-2-(4-(4-(ETHYLSULFONYL)PIPERAZIN-1-YL)PHENYLAMINO)PYRIMIDINE-5-CARBOXAMIDE AND FLUDARABINE” (Portola Pharmaceuticals, Inc., priority 2010, published 2013).
# Test system: primary CLL cells
# Experiment: tetrazolium-based (MTS) cell viability assay on fresh primary CLL cells
# Set-up: species or system human
# Details: 10 nM to 10 μM, 3 days
# From the text: The viability data were normalized to untreated controls and were used to calculate IC50 values.
structure (smiles),measurement,value
"CCS(=O)(=O)N1CCN(c2ccc(Nc3ncc(C(N)=O)c(NC4CC4)n3)cc2)CC1 [Compound 2, 4-(cyclopropylamino)-2-(4-(4-(ethylsulfonyl)piperazin-1-yl)phenylamino)pyrimidine-5-carboxamide]",single agent activity in CLL,single agent activity
